Patent US9982152B2, “Active energy ray curable composition, cured product, composition storage container, two-dimensional or three-dimensional image forming apparatus, and two-dimensional or three-dimensional image forming method” (Ricoh Company, Ltd., priority 2016, dated 2018)
Like-named read-outs stand apart in the source and are kept apart here.

Assays:
[1] = LLNA (Local Lymph Node Assay), SI (Stimulus Index); assay type: in vivo; details: for Skin Sensitization Potential: judged from SI by LLNA; for SI (by LLNA): measured according to method of JP-2012-140593-A
Excerpt: In the present disclosure, compounds having skin sensitization potential refer to those determined to be positive in a skin sensitization test. Hereinafter, such compounds may also be referred to as “skin-sensitizing compounds” or “skin sensitizers”. The skin sensitization test is not limited to a specific test. As an example of the skin sensitization test, LLNA (Local Lymph Node Assay) is known that evaluates the degree of sensitization potential by SI (Stimulus Index). SI of 3 or more is determined to be positive.
Skin sensitization information described in Table 1 was obtained from SDSs available in Japan or other countries. SI (determined by LLNA) values described in Table 1 were measured according to a method described in JP-2012-140593-A.

[2] = data source SDS, GHS hazard category for skin sensitizers or negative in a skin sensitization test, cited from earlier work

Compound: Tricyclodecane dimethanol dimethacrylate [(A-4)]
- Skin Sensitization Potential [1]: Negative
- Skin Sensitization Potential ([1]; listed as tricyclodecane dimethanol dimethacrylate): non-skin-sensitizing
- SI (by LLNA) [1]: SI = 1.3

Compound: CSc1ccc(C(=O)C(C)(C)N2CCOCC2)cc1 [(B2-1), 2-Methyl-1-[4-(methylthio)phenyl]-2-morpholinopropane-1-one]
- Skin Sensitization Potential [2]: Negative
- Skin Sensitization Potential ([2]; listed as IRGACURE 907): negative

Compound: CCCCCCC(=NOC(=O)c1ccccc1)C(=O)c1ccc(Sc2ccccc2)cc1 [(B1-3), 1-[4-(Phenylthio)phenyl]octane-1,2-dione 2-(o-benzoyloxime)]
- Skin Sensitization Potential [2]: Category 1
- Skin Sensitization Potential ([2]; listed as IRGACURE OXE01): category 1

Compound: Cc1cc(C)c(C(=O)P(=O)(C(=O)c2c(C)cc(C)cc2C)c2ccccc2)c(C)c1 [(B1-2), Phenylbis(2,4,6-trimethylbenzoyl)phosphine oxide]
- Skin Sensitization Potential [2]: Category 1
- Skin Sensitization Potential ([2]; listed as IRGACURE 819): category 1

Compound: CCn1c2ccc(C(=O)c3ccccc3C)cc2c2cc(C(C)=NOC(C)=O)ccc21 [(B1-4), 1-[9-Ethyl-6-(2-methylbenzoyl)-9H-carbazole-3-yl]ethanone o-acetyloxime]
- Skin Sensitization Potential [2]: 1B
- Skin Sensitization Potential ([2]; listed as IRGACURE OXE02): sub-category 1B

Compound: C=CC(=O)NCCO [(A-2), N-(2-Hydroxyethyl)acrylamide]
- Skin Sensitization Potential [2]: Negative
- Skin Sensitization Potential ([2]; listed as HEAA): negative

Compound: C=C(C)C(=O)OCC(C)(C)COC(=O)C(=C)C [(A-5), Neopentyl glycol dimethacrylate]
- Skin Sensitization Potential [1]: Negative
- Skin Sensitization Potential ([1]; listed as neopentyl glycol dimethacrylate): non-skin-sensitizing
- SI (by LLNA) [1]: SI = 2.0

Compound: CC(C)(O)C(=O)c1ccc(OCCO)cc1 [(B2-4), 1-[4-(2-hydroxyethoxy)phenyl]-2-hydroxy-2-methylpropane-1-one]
- Skin Sensitization Potential [2]: Negative
- Skin Sensitization Potential ([2]; listed as IRGACURE 2959): negative

Compound: O=C(c1ccccc1)C1(O)CCCCC1 [(B2-3), 1-Hydroxycyclohexyl phenyl ketone]
- Skin Sensitization Potential [2]: Negative
- Skin Sensitization Potential ([2]; listed as IRGACURE 184): negative

Compound: CCC(Cc1ccc(C)cc1)(C(=O)c1ccc(N2CCOCC2)cc1)N(C)C (stereo not drawn) [(B2-2), 2-(Dimethylamino)-2-[(4-methylphenyl)methyl]-1-(4-morpholinophenyl)butane-1-one]
- Skin Sensitization Potential [2]: Negative
- Skin Sensitization Potential ([2]; listed as IRGACURE 379): negative

Compound: Cc1cc(C)c(C(=O)P(=O)(c2ccccc2)c2ccccc2)c(C)c1 [(B1-1), Diphenyl(2,4,6-trimethylbenzoyl)phosphine oxide]
- Skin Sensitization Potential [2]: 1B
- Skin Sensitization Potential ([2]; listed as IRGACURE TPO): sub-category 1B
